{
  "source": "paper PMC7738871",
  "about": "“Covalent modification of Keap1 at Cys77 and Cys434 by pubescenoside a suppresses oxidative stress-induced NLRP3 inflammasome activation in myocardial ischemia-reperfusion injury” (Theranostics, 2021)",
  "key": {"[1]": {"tested_on": "primary neonatal mouse cardiomyocytes", "assay": "MTT cytotoxicity, primary cardiomyocytes", "assay_type": "cell-based", "details": "under 240 μM, 48 h", "description": "The heart was removed from the neonatal C57BL/6 mice and cut into 1 mm^3 pieces in ice […] buffer. The tissues were digested with the mixture of 0.125% trypsin (Gibco, 15090-046) and 0.1% type II collagenase (Gibco, 17101-015) 6 min at 37 °C for three times until the tissues were completely digested. The cells were harvested and seeded in a dish. After 90 min of incubation, the cell culture medium was collected and centrifuged. The centrifuged cardiomyocytes were harvested, seeded on 0.1 % gelatin-coated culture plates with DMEM containing 10% FBS and […] Brdu, and incubated in a 37°C incubator.\nCell viability was determined by MTT assays. PBA was prepared to a stock solution dissolved in dimethyl sulfoxide (DMSO). RAW264.7, H9c2 cells, primary mouse cardiomyocytes were treated with different doses of PBA, and DMSO only as control for 48 h for the toxicity. In addition, H9c2 cells or primary mouse cardiomyocytes were treated with the indicated doses of PBA, diazoxide as positive control, DMSO only as control, then cultured with or without OGD/R treatment. At the end of the experiments, MTT was added into each well at the concentration of 0.5 mg/ml, and incubated at 37 °C for 4 h. […] And the solution was measured at the absorbance of 490 nm by a spectrophotometer (Thermo Fisher Scientific, MA, USA). […]"}, "[2]": {"tested_on": "NLRP3 inflammasome", "assay": "LPS plus ATP-induced NLRP3 inflammasome in RAW264.7", "assay_type": "cell-based", "description": "Based on the previous study, RAW264.7 cells were treated with different concentrations of PBA 1 h before 200 ng/mL lipopolysaccharide (LPS) stimulation for 6 h. Then, 2 mM adenosine triphosphate (ATP) was added and incubated for 20 min at 37 °C with 5% CO2.\nTotal protein was isolated from H9c2 cells, primary mouse cardiomyocytes, RAW264.7 cells and heart tissue using 1X RIPA buffer containing phosphatase and proteinase inhibitors at 4 °C. After measurement of the concentration, the cell lysates were separated by sodium dodecyl sulphate polyacrylamide gel electrophoresis (SDS-PAGE) and transferred to polyvinylidene fluoride (PVDF) membranes. The membranes were blocked in Tris-buffered saline-Tween 20 (TBST) buffer with 5% BSA for 1 h and incubated with primary antibodies (1:1000 dilution) overnight at 4 °C. After the membranes was washed by TBST buffer for three times, they were incubated with horseradish peroxidase (HRP)-conjugated secondary mouse or rabbit antibodies (1:3,000 dilution) at room temperature (RT) for 1.5 h and then detected by SuperEnhanced chemiluminescence (ECL) reaction reagents (GBCBIO Technologies Inc., Guangzhou, Guangdong, China). […] After letting the membranes stand for 1-2 min, the bands of the respective proteins were detected with the exposure time of 10 ~60 s.\nAccording to previous experiences, Nrf2 nucleus translocation could be detected at 6 h. […]"}, "[3]": {"tested_on": "HO-1 and NQO1", "assay": "HO-1 and NQO1 protein expression, H9c2", "assay_type": "cell-based, rat", "details": "H9c2 cells, 24 h, dose-dependent", "description": "Total protein was isolated from H9c2 cells, primary mouse cardiomyocytes, RAW264.7 cells and heart tissue using 1X RIPA buffer containing phosphatase and proteinase inhibitors at 4 °C. After measurement of the concentration, the cell lysates were separated by sodium dodecyl sulphate polyacrylamide gel electrophoresis (SDS-PAGE) and transferred to polyvinylidene fluoride (PVDF) membranes. The membranes were blocked in Tris-buffered saline-Tween 20 (TBST) buffer with 5% BSA for 1 h and incubated with primary antibodies (1:1000 dilution) overnight at 4 °C. After the membranes was washed by TBST buffer for three times, they were incubated with horseradish peroxidase (HRP)-conjugated secondary mouse or rabbit antibodies (1:3,000 dilution) at room temperature (RT) for 1.5 h and then detected by SuperEnhanced chemiluminescence (ECL) reaction reagents (GBCBIO Technologies Inc., Guangzhou, Guangdong, China). In brief, drop evenly the ECL working liquid onto the membrane at the ratio of 1 mL ECL working liquid and 10 cm^2 of membrane. After letting the membranes stand for 1-2 min, the bands of the respective proteins were detected with the exposure time of 10 ~60 s."}},
  "data": [
    {"smiles": "C=C(COC(=O)C=Cc1ccc(O)c(O)c1)C(O)COC1OC(CO)C(O)C(O)C1O", "note": "(stereo not shown) [PBA, pubescenoside A]", "values": [
      {"measurement": "cell toxicity (MTT)", "setting": "[1]", "result": "did not exhibit any cell toxicity"},
      {"measurement": "LPS/ATP-induced ACS and Caspase1 expression (immunofluorescent staining)", "setting": "[2]; RAW264.7, 30 μM", "result": "significantly reduced"},
      {"measurement": "LPS/ATP-mediated NLPR3 induction, cleaved-caspase1 and IL-1β", "setting": "[2]; RAW264.7, PBA 1 h pretreatment, 200 ng/mL LPS 6 h, 2 mM ATP 20 min, western blot", "result": "attenuated"},
      {"measurement": "HO-1 and NQO1 expression at the protein level", "setting": "[3]", "result": "increased"}
    ]}
  ]
}
